In PubChem BioAssay AID2060488 (Molecular Pharmacology Branch, DTP, NCI, 2025):

Test system: 966289-007-R4-J1-PDC complex spheroid viability
Assay: Anticancer human tumor 966289-007-R4-J1-PDC patient-derived pancreatic adenocarcinoma cell line growth inhibition [GQUAD]
Settings: for IC50: curve of first compound; for viability, T/C: stronger effect = lower value
Source text: DNA G-quadruplex Stabilizer Agents in Combinations in Complex Spheroids
A high-throughput screen of multi-cell type tumor spheroids was designed to identify active combinations of DNA G-quadruplex stabilizer agents and targeted small molecules. Complex spheroids include a stromal component modeled by human endothelial cells (HUVEC) and fibroblasts modeled by human mesenchymal stem cells (MSCs). The concentration ranges selected for each drug and investigational agent were based upon clinically achievable concentrations if the clinical Cmax of the agent was known.
Compounds. The drugs and investigational agents: pidnarulex (CX-5461; NSC782164), APTO-253 (NSC789042), BRACO-19 (NSC847499), peposertib (NSC802822), ceralasertib (NSC780249), elimusertib (NSC800525), camonsertib (NSC841442), AZD-1390 (NSC803789), olaparib (NSC753686), talazoparib (NSC767125), ART-558 (NSC835418), sotorasib (NSC818433), MRTX-1133 (NSC836407), SN-38 (NSC673596), topotecan (NSC609699), etoposide (NSC141540), doxorubicin (NSC123127), gemcitabine (NSC613327), 5-fluorouracil (NSC19893), paclitaxel (NSC125973), vemurafenib (NSC761431), panobinostat (NSC761190), R-306465 (JNJ-16241199; NSC773264), adavosertib (NSC754352), TP-3654 (NSC805149), carboplatin (NSC241240), KSQ-4279 (NSC840948), and staurosporine (NSC755774) were obtained from the National Cancer Institute (NCI) Developmental Therapeutics Program Chemical Repository (34). The FDA-approved anticancer drug set is available from the NCI Developmental Therapeutics Program. […] The stock solutions were prepared in dimethyl sulfoxide (DMSO, Sigma-Aldrich, St. Louis, MO, cat. D2650) at 800-fold the tested concentration and stored at -70 degrees C prior to their use. All drugs and investigational agents were tested over a range starting from a high concentration at or near the clinical Cmax and decreasing in half-log increments. If the clinical Cmax for an agent had not been determined, the highest concentration tested was 10 microM.
2.3 Cell Culture. All cells were maintained in an incubator at 37 degrees C and 5% CO2 with 95% humidity. The PDC lines were cultured according to standard operating procedures established by the NCI PDMR. All PDCs were thawed and cultured in Matrigel-coated flasks prepared with a working solution of 1X Ham's F-12 nutrient mix, without supplementation (Invitrogen, cat. 11765054), 100 U/mL penicillin-streptomycin (Invitrogen, cat. 15140122), and 2.5% Matrigel (Corning Inc., cat. 354248) for the first three passages. The 857933-349-R-J2-PDC line was cultured in 6C/Colon 1B media, which includes advanced DMEM/F-12 (Thermo Fisher Scientific, cat. 12634028), 10 mM HEPES (Thermo Fisher Scientific, cat. 15630080), 1X GlutaMAX supplement (Thermo Fisher Scientific, cat. 35050061), 0.1 mg/mL primocin (InvivoGen, cat. ant-pm-2), 10% defined fetal bovine serum, heat inactivated (HyClone Laboratories Inc., cat. SH30070.03HI), 50% L-WRN conditioned media (ATCC, cat. CRL-3276), 1.25 mM N-Acetyl-L-cysteine (Sigma-Aldrich, cat. A9165), 10 mM nicotinamide (Sigma-Aldrich, cat. N0636), 1X B-27 supplement (Thermo Fisher Scientific, cat. 17504044), 1X N-2 supplement (Thermo Fisher Scientific, cat. 17502048), 10 microM Y-27632 dihydrochloride (Tocris Bioscience, cat. 1254), and 50 ng/mL human EGF recombinant protein (Thermo Fisher Scientific, cat. PHG0311). The 485176-168-R4-J1-PDC line was cultured in Panc media, which includes all 6C/Colon 1B media components plus 100 ng/mL human FGF-10 (Thermo Fisher Scientific, cat. 100-26), 500 nM SB-431542 (Selleckchem, cat. S1067), and gastrin (Tocris, cat. 3006).
[…]

[1] = second compound 0.0316 µM, first compound 0.0316 µM
[2] = second compound 0.0316 µM, first compound 0.316 µM
[3] = second compound 0.1 µM, first compound 0.0316 µM
[4] = second compound 0.1 µM, first compound 0.316 µM
[5] = second compound 0.316 µM, first compound 0.0316 µM
[6] = second compound 0.316 µM, first compound 0.316 µM
[7] = second compound 1 µM, first compound 0.0316 µM
[8] = second compound 1 µM, first compound 0.316 µM
[9] = second compound 3.16 µM, first compound 0.0316 µM
[10] = second compound 3.16 µM, first compound 0.316 µM
[11] = second compound 10 µM, first compound 0.0316 µM
[12] = second compound 10 µM, first compound 0.316 µM
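Note: spheroids exposed to the agents for seven days before readout.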
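Throughout, for viability, T/C: percent viability relative to DMSO vehicle control wells taken as 100%.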

## Cc1cccc(N(C)C(=O)C2C(O)CCN2c2nc(C)cc(C(F)(F)F)c2C#N)c1 (centres undefined) + CN(C)c1ccc(Nc2c3ccc(NC(=O)CCN4CCCC4)cc3nc3cc(NC(=O)CCN4CCCC4)ccc23)cc1
Second compound 0.0316 µM
  IC50: > 10000 nM
Second compound 0.1 µM
  IC50: > 10000 nM
Second compound 0.316 µM
  IC50: > 10000 nM
Second compound 1 µM
  IC50: > 10000 nM
Second compound 3.16 µM
  IC50: > 10000 nM
Second compound 10 µM
  IC50: 1720 nM
[1]
  viability, T/C: 107%
Second compound 0.0316 µM, first compound 0.1 µM
  viability, T/C: 94.7%
[2]
  viability, T/C: 106%
Second compound 0.0316 µM, first compound 1 µM
  viability, T/C: 95.8%
Second compound 0.0316 µM, first compound 3.16 µM
  viability, T/C: 101%
Second compound 0.0316 µM, first compound 10 µM
  viability, T/C: 99.3%
[3]
  viability, T/C: 107%
Second compound 0.1 µM, first compound 0.1 µM
  viability, T/C: 98.5%
[4]
  viability, T/C: 103%
Second compound 0.1 µM, first compound 1 µM
  viability, T/C: 99.7%
Second compound 0.1 µM, first compound 3.16 µM
  viability, T/C: 102%
Second compound 0.1 µM, first compound 10 µM
  viability, T/C: 107%
[5]
  viability, T/C: 95.8%
Second compound 0.316 µM, first compound 0.1 µM
  viability, T/C: 100%
[6]
  viability, T/C: 105%
Second compound 0.316 µM, first compound 1 µM
  viability, T/C: 101%
Second compound 0.316 µM, first compound 3.16 µM
  viability, T/C: 102%
Second compound 0.316 µM, first compound 10 µM
  viability, T/C: 100%
[7]
  viability, T/C: 102%
Second compound 1 µM, first compound 0.1 µM
  viability, T/C: 105%
[8]
  viability, T/C: 107%
Second compound 1 µM, first compound 1 µM
  viability, T/C: 101%
Second compound 1 µM, first compound 3.16 µM
  viability, T/C: 99.6%
Second compound 1 µM, first compound 10 µM
  viability, T/C: 109%
[9]
  viability, T/C: 104%
Second compound 3.16 µM, first compound 0.1 µM
  viability, T/C: 106%
[10]
  viability, T/C: 101%
Second compound 3.16 µM, first compound 1 µM
  viability, T/C: 97.3%
Second compound 3.16 µM, first compound 3.16 µM
  viability, T/C: 102%
Second compound 3.16 µM, first compound 10 µM
  viability, T/C: 104%
[11]
  viability, T/C: 105%
Second compound 10 µM, first compound 0.1 µM
  viability, T/C: 103%
[12]
  viability, T/C: 96.1%
Second compound 10 µM, first compound 1 µM
  viability, T/C: 72.2%
Second compound 10 µM, first compound 3.16 µM
  viability, T/C: 25.2%
Second compound 10 µM, first compound 10 µM
  viability, T/C: 7.13%

## Cn1ncnc1[C@H]1c2n[nH]c(=O)c3cc(F)cc(c23)N[C@@H]1c1ccc(F)cc1 + CN(C)c1ccc(Nc2c3ccc(NC(=O)CCN4CCCC4)cc3nc3cc(NC(=O)CCN4CCCC4)ccc23)cc1
Second compound 0.0316 µM
  IC50: 161 nM
Second compound 0.1 µM
  IC50: 164 nM
Second compound 0.316 µM
  IC50: 168 nM
Second compound 1 µM
  IC50: 137 nM
Second compound 3.16 µM
  IC50: 104 nM
Second compound 10 µM
  IC50: 47.5 nM
Second compound 0.0316 µM, first compound 0.000999 µM
  viability, T/C: 107%
Second compound 0.0316 µM, first compound 0.00316 µM
  viability, T/C: 101%
Second compound 0.0316 µM, first compound 0.00999 µM
  viability, T/C: 109%
[1]
  viability, T/C: 104%
Second compound 0.0316 µM, first compound 0.0999 µM
  viability, T/C: 71.7%
[2]
  viability, T/C: 19%
Second compound 0.1 µM, first compound 0.000999 µM
  viability, T/C: 105%
Second compound 0.1 µM, first compound 0.00316 µM
  viability, T/C: 101%
Second compound 0.1 µM, first compound 0.00999 µM
  viability, T/C: 105%
[3]
  viability, T/C: 105%
Second compound 0.1 µM, first compound 0.0999 µM
  viability, T/C: 75.2%
[4]
  viability, T/C: 16.9%
Second compound 0.316 µM, first compound 0.000999 µM
  viability, T/C: 95.1%
Second compound 0.316 µM, first compound 0.00316 µM
  viability, T/C: 99.7%
Second compound 0.316 µM, first compound 0.00999 µM
  viability, T/C: 104%
[5]
  viability, T/C: 107%
Second compound 0.316 µM, first compound 0.0999 µM
  viability, T/C: 73.3%
[6]
  viability, T/C: 21.7%
Second compound 1 µM, first compound 0.000999 µM
  viability, T/C: 95.9%
Second compound 1 µM, first compound 0.00316 µM
  viability, T/C: 97.2%
Second compound 1 µM, first compound 0.00999 µM
  viability, T/C: 104%
[7]
  viability, T/C: 106%
Second compound 1 µM, first compound 0.0999 µM
  viability, T/C: 62.5%
[8]
  viability, T/C: 16.9%
Second compound 3.16 µM, first compound 0.000999 µM
  viability, T/C: 91.5%
Second compound 3.16 µM, first compound 0.00316 µM
  viability, T/C: 109%
Second compound 3.16 µM, first compound 0.00999 µM
  viability, T/C: 109%
[9]
  viability, T/C: 104%
Second compound 3.16 µM, first compound 0.0999 µM
  viability, T/C: 51.2%
[10]
  viability, T/C: 13%
Second compound 10 µM, first compound 0.000999 µM
  viability, T/C: 103%
Second compound 10 µM, first compound 0.00316 µM
  viability, T/C: 104%
Second compound 10 µM, first compound 0.00999 µM
  viability, T/C: 102%
[11]
  viability, T/C: 69.1%
Second compound 10 µM, first compound 0.0999 µM
  viability, T/C: 15%
[12]
  viability, T/C: 5.65%
